Test results from BindingDB's records for doi:10.7270/Q25D8QFV (Burnham Center For Chemical Genomics, 2012).

Target: T1, Mitochondrial import inner membrane translocase subunit TIM23 (Saccharomyces cerevisiae (strain ATCC 204508 / S288c), UniProt P32897)
T1 sequence (P32897 whole entry): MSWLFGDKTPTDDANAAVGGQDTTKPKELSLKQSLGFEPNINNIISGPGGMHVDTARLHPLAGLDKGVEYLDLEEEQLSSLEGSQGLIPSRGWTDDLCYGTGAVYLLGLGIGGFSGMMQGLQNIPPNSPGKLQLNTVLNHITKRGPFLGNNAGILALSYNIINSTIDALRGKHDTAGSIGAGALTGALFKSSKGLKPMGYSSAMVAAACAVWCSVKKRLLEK
Assay: tim23-1 mutant yeast growth inhibitors, SAR follow-up, luminescence, S. cerevisiae (AID 602375)

Compound	IC50 [µM]
C(=CN=Nc1nc2ccccc2[nH]1)Cc1ccccc1 [MLS000390936]	11.2
Cc1ccc2nc(-n3c(O)c[nH]c3=S)sc2c1	50.3
Cc1c2c(n(Cc3ccco3)c1C)N=CN1C=CS(=O)(=O)NC21 (stereo not given) [8-(furan-2-ylmethyl)-9,10-dimethyl-3,4-dihydropyrrolo[1,2]pyrimido[3,5-b][1,2,4]thiadiazine 2,2-dioxide]	> 99
CCOc1ccc2nc(-n3c(O)c[nH]c3=S)sc2c1 [3-(6-Ethoxy-benzothiazol-2-yl)-2-thioxo-imidazolidin-4-one]	> 99
Cc1ccc(C2NN=C(c3ccc(Cl)cc3Cl)S2)cc1 (stereo not given) [MLS-0463404.0001]	44.3
